Measured values from US20070128217A1 (priority 2003, published 2007).

Columns and labels:
[1] = test system: control sera (pooled serum of ten healthy LUMC hospital workers; commercial negative donor pooled serum from the Dutch bloodbank); format: binding, human; design: Binding of Control serum LUMC to linear peptides / Binding of Control serum Blood-bank to linear peptides / Binding of Control serum LUMC to looped peptides / Binding of Control Serum Blood-Bank to Looped peptides / Binding of Control serum LUMC to linear peptides of the protein M of SARS-CoV Urbani / Binding of Control serum Blood-bank to linear peptides of the protein M of SARS-CoV Urbani / Binding of Control serum LUMC to looped peptides of the protein M of SARS-CoV Urbani / Binding of Control Serum Blood-Bank to Looped peptides of the protein M of SARS-CoV Urbani: unit not given here
[2] = test system: antibodies in sera from SARS patients (sera 1a, 1b, 2, 6, 37, 62, London, SARS-yellow, SARS-green); format: binding, human; design: Binding of serum 6 to linear peptides of protein X1 of SARS-CoV Urbani / Binding of serum 37 to linear peptides of protein X1 of SARS-CoV Urbani / Binding of serum 6 to looped/cyclic peptide (PEPSCAN-ELISA) / Binding of serum 37 to looped/cyclic peptide (PEPSCAN-ELISA) / Binding of serum 37 to looped/cyclic peptides of protein X1 of SARS-CoV Urbani / Binding of serum 6 to linear peptides of protein X2 / Binding of serum 37 to linear peptides of protein X2 / Binding of serum 37 to looped/cyclic peptides of protein X2 of SARS-CoV Urbani / Binding of serum 6 to linear peptides of protein M of SARS-CoV Urbani / Binding of serum 37 to linear peptides of protein M of SARS-CoV Urbani / Binding of serum 6 to looped/cyclic peptides of protein M of SARS-CoV Urbani / Binding of serum 37 to looped/cyclic peptides of protein M of SARS-CoV Urbani / Binding of serum 6 to linear peptides of protein X3 of SARS-CoV Urbani / Binding of serum 37 to linear peptides of protein X3 of SARS-CoV Urbani / Binding of serum 37 to looped/cyclic peptides of protein X3 of SARS-CoV Urbani / Binding of serum 6 to linear peptides of protein X4 of SARS-CoV Urbani / Binding of serum 37 to linear peptides of protein X4 of SARS-CoV Urbani / Binding of serum 37 to looped/cyclic peptides of protein X4 of SARS-CoV Urbani / Binding of serum 6 to linear peptides of protein X5 of SARS-CoV Urbani / Binding of serum 37 to linear peptides of protein X5 of SARS-CoV Urbani / Binding of serum 37 to looped/cyclic peptides of protein X5 of SARS-CoV Urbani / Binding of serum 6 to linear peptides of protein N of SARS-CoV Urbani / Binding of serum 37 to linear peptides of protein N of SARS-CoV Urbani / Binding of serum 6 to linear peptide (PEPSCAN-ELISA) / Binding of serum 1a to looped/cyclic peptides of protein N of SARS-CoV Urbani / Binding of serum 1b to looped/cyclic peptides of protein N of SARS-CoV Urbani / Binding of serum 2 to looped/cyclic peptides of protein N of SARS-CoV Urbani / Binding of serum 6 to looped/cyclic peptides of protein N of SARS-CoV Urbani / Binding of serum 37 to looped/cyclic peptides of protein N of SARS-CoV Urbani / Binding of serum 62 to looped/cyclic peptides of protein N of SARS-CoV Urbani / Binding of serum London to looped/cyclic peptides of protein N of SARS-CoV Urbani / Binding of serum SARS-green to looped/cyclic peptides of protein N of SARS-CoV Urbani: unit not given here
[3] = test system: rabbit serum obtained by immunizing a rabbit with the SARS-CoV strain Frankfurt 1; format: binding; design: Binding of a rabbit serum to linear peptides / Binding of a rabbit serum to looped peptides / Rabbit serum linear peptides / Rabbit serum looped peptides / Binding of a rabbit serum to linear peptides of protein N of SARS-CoV Urbani (Rabbit serum linear peptides) / Binding of a rabbit serum to looped/cyclic peptides of protein N of SARS-CoV Urbani (Rabbit serum looped peptides): unit not given here

| Sequence | Binding of Control Serum Blood-Bank to Looped peptides [1] | Binding of Control serum Blood-bank to linear peptides [1] | Binding of Control serum LUMC to linear peptides [1] | Binding of Control serum LUMC to looped peptides [1] | Binding of serum 1a to looped/cyclic peptides of protein X2 of SARS-CoV Urbani [2] | Binding of serum 1b to looped/cyclic peptides of protein X2 of SARS-CoV Urbani [2] | Binding of serum 2 to looped/cyclic peptides of protein X2 of SARS-CoV Urbani [2] | Binding of serum 6 to looped/cyclic peptides of protein X2 of SARS-CoV Urbani [2] | Binding of serum 37 to looped/cyclic peptides of protein X2 of SARS-CoV Urbani [2] | Binding of serum 62 to looped/cyclic peptides of protein X2 of SARS-CoV Urbani [2] | Binding of serum London to looped/cyclic peptides of protein X2 of SARS-CoV Urbani [2] | Binding of serum SARS-green to looped/cyclic peptides of protein X2 of SARS-CoV Urbani [2] | Binding of serum SARS-yellow to looped/cyclic peptides of protein X2 of SARS-CoV Urbani [2] | Binding of a rabbit serum to linear peptides [3] | Binding of a rabbit serum to looped peptides [3] | other results |
| --- | --- | --- | --- | --- | --- | --- | --- | --- | --- | --- | --- | --- | --- | --- | --- | --- |
| CKYTQSTALQELLIQ | 0.4 | 0.6 | 0.5 | 0.6 | 0.6 | 0.6 | 0.5 | 0.4 | 0.3 | 0.4 | 0.3 | 0.4 | 0.3 | 0.2 | 0.2 | Binding of serum 1a to linear peptides of protein X2 [2]: 0.7; Binding of serum 1b to linear peptides of protein X2 [2]: 0.5; Binding of serum 2 to linear peptides of protein X2 [2]: 0.5; Binding of serum 6 to linear peptides of protein X2 [2]: 0.4; Binding of serum 37 to linear peptides of protein X2 [2]: 0.7; Binding of serum 62 to linear peptides of protein X2 [2]: 0.7; Binding of serum London to linear peptides of protein X2 [2]: 0.5; Binding of serum SARS-green to linear peptides of protein X2 [2]: 0.7; Binding of serum SARS-yellow to linear peptides of protein X2 [2]: 0.6 |
| CLCKHKKVSTNLCTH | 0.4 | 1.0 | 0.9 | 0.3 | 0.3 | 0.3 | 0.3 | 0.3 | 0.4 | 0.5 | 0.2 | 0.3 | 0.4 | 0.4 | 0.4 | Recognition of the peptide by sera of SARS-CoV infected individuals, and form (linear, looped/cyclic) in which it is recognized [2]: recognized in linear form |
| CLKILVRYNTRGNTY | 0.4 | 0.8 | 0.4 | 0.6 |  |  |  |  |  |  |  |  |  |  |  | Binding of serum 1a to linear peptides of protein X5 of SARS-CoV Urbani [2]: 0.7; Binding of serum 1a to looped/cyclic peptides of protein X5 of SARS-CoV Urbani [2]: 0.5; Binding of serum 1b to linear peptides of protein X5 of SARS-CoV Urbani [2]: 0.7; Binding of serum 1b to looped/cyclic peptides of protein X5 of SARS-CoV Urbani [2]: 0.2; Binding of serum 2 to linear peptides of protein X5 of SARS-CoV Urbani [2]: 0.8; Binding of serum 2 to looped/cyclic peptides of protein X5 of SARS-CoV Urbani [2]: 0.5; Binding of serum 6 to linear peptides of protein X5 of SARS-CoV Urbani [2]: 0.8; Binding of serum 6 to looped/cyclic peptides of protein X5 of SARS-CoV Urbani [2]: 0.4; Binding of serum 37 to linear peptides of protein X5 of SARS-CoV Urbani [2]: 0.7; Binding of serum 37 to looped/cyclic peptides of protein X5 of SARS-CoV Urbani [2]: 0.5; Binding of serum 62 to linear peptides of protein X5 of SARS-CoV Urbani [2]: 0.8; Binding of serum 62 to looped/cyclic peptides of protein X5 of SARS-CoV Urbani [2]: 0.7; Binding of serum London to linear peptides of protein X5 of SARS-CoV Urbani [2]: 0.7; Binding of serum London to looped/cyclic peptides of protein X5 of SARS-CoV Urbani [2]: 0.2; Binding of serum SARS-green to linear peptides of protein X5 of SARS-CoV Urbani [2]: 0.7; Binding of serum SARS-green to looped/cyclic peptides of protein X5 of SARS-CoV Urbani [2]: 0.4; Binding of serum SARS-yellow to linear peptides of protein X5 of SARS-CoV Urbani [2]: 0.3; Binding of serum SARS-yellow to looped/cyclic peptides of protein X5 of SARS-CoV Urbani [2]: 0.8; Rabbit serum linear peptides [3]: 1.1; Rabbit serum looped peptides [3]: 0.2 |
